Results from patent publication US20130244999A1, “Substituted Heterocyclic Compounds” (Incyte Corporation, priority 2008, published 2013).

Biological target: T1, histamine H4 receptor (Homo sapiens, UniProt Q9H3N8)
T1 construct: expressed in transfected cells; host or cells: HEK293SFM cells (membrane preparation)
Assay: Inhibition of histamine H4 receptor (Table A1; H4 membrane binding assay)
Details: for IC50: histamine H4 receptor, "> a" = exceeds experiment limit
Experimental: Recombinant HEK293SFM cells expressing human H1, H2, H3, H4 or mouse H4 were harvested (Packard Filtermate Harvester) in ice-cold Tris-HCl, (50 mM, pH 7.5, Sigma) with protease inhibitors (Roche) and homogenized with a Polytron homogenizer. The homogenate was centrifuged for 5 minutes at 1000 g to remove nuclei and unbroken cells. The supernatant was centrifuged at 50000 g for 30 minutes, and the resulting pellet was re-suspended in ice-cold Tris-HCl (50 mM, pH 7.5). […] Nonspecific binding was determined by inclusion of 1000× unlabeled ligands. The bound radioactivity was separated by filtration through polyethyleneimine-treated GF/B filters (Perkin Elmer). The filters were washed eight times with ice-cold Tris-HCl (50 mM, pH 7.5), and radioactivity retained on the filters was measured by liquid scintillation counting. The binding data were evaluated with Prism. […]

T1 sequence (Q9H3N8 whole entry): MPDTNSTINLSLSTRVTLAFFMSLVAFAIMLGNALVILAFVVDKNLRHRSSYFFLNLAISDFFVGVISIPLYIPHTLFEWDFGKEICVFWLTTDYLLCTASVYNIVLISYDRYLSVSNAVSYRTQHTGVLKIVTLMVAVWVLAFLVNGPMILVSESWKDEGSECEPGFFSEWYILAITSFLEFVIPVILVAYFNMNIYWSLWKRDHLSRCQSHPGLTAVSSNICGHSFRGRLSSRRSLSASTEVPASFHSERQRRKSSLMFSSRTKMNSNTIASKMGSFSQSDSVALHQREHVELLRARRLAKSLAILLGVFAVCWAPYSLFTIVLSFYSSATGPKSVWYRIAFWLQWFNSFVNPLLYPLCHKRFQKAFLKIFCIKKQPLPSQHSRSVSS

SMILES	inhibition at 1 µM [%]	IC50 [µM]
CC1Cc2ccc(-c3cnn(C4CCOCC4)c3)cc2CN1c1cc(N2CCN(C)CC2)nc(N)n1 (stereo not shown) [Example 95B, 4-(4-Methylpiperazin-1-yl)-6-[3-methyl-7-[1-(tetrahydro-2H-pyran-4-yl)-1H-pyrazol-4-yl]-3,4-dihydroisoquinolin-2(1H)-yl]pyrimidin-2-amine]	79	
CCOc1ccc(Cn2cc(-c3ccc4c(c3)CN(c3cc(N5CCN(C)CC5)nc(N)n3)CC4)cn2)cn1 [Example 10, 4-[7-{1-[(6-Ethoxypyridin-3-yl)methyl]-1H-pyrazol-4-yl}-3,4-dihydroisoquinolin-2(1H)-yl]-6-(4-methylpiperazin-1-yl)pyrimidin-2-amine]		0.102
CN1CCN(c2cc(N3CCc4ccc(-c5nc(C(=O)N6CCCC6)cs5)cc4C3)nc(N)n2)CC1 [Example 48, 4-(4-Methylpiperazin-1-yl)-6-[7-[4-(pyrrolidin-1-ylcarbonyl)-1,3-thiazol-2-yl]-3,4-dihydroisoquinolin-2(1H)-yl]pyrimidin-2-amine]		0.2
CC(=O)N1CCN(c2ccc3c(c2)CN(c2cc(N4CCN(C)CC4)nc(N)n2)CC3)CC1 [Example 31, 4-[7-(4-Acetylpiperazin-1-yl)-3,4-dihydroisoquinolin-2 (1H)-yl]-6-(4-methylpiperazin-1-yl)pyrimidin-2-amine]		0.299
CC1Cc2ccc(-c3ccc(C(=O)N4CCCC4)nc3)cc2CN1c1cc(N2CCN(C)CC2)nc(N)n1 (single isomer, unassigned) [Example 55B, 4-(4-methylpiperazin-1-yl)-6-[3-methyl-7-[6-(pyrrolidin-1-ylcarbonyl)pyridin-3-yl]-3,4-dihydroisoquinolin-2(1H)-yl]pyrimidin-2-amine]	65	
CN1CCN(c2cc(N3CCc4ccc(-c5cnn(C)c5)cc4C3)nc(N)n2)CC1 [Example 4, 4-(4-Methylpiperazin-1-yl)-6-[7-(1-methyl-1H-pyrazol-4-yl)-3,4-dihydroisoquinolin-2(1H)-yl]pyrimidin-2-amine]		0.08
CNC(=O)N1CCC(c2ccc3c(c2)CN(c2cc(N4CCN(C)CC4)nc(N)n2)C(C)C3)CC1 (stereo not shown) [Example 151, 4-{2-[2-Amino-6-(4-methylpiperazin-1-yl)pyrimidin-4-yl]-3-methyl-1,2,3,4-tetrahydroisoquinolin-7-yl}-N-methylpiperidine-1-carboxamide]		0.0421
CC1Cc2ccc(-c3cnn(C4CCN(CCO)CC4)c3)cc2CN1c1cc(N2CCN(C)CC2)nc(N)n1 (single isomer, unassigned) [Example 111, 2-[4-(4-{2-[2-Amino-6-(4-methylpiperazin-1-yl)pyrimidin-4-yl]-3-methyl-1,2,3,4-tetrahydroisoquinolin-7-yl}-1H-pyrazol-1-yl)piperidin-1-yl]ethanol]		0.022
CCC(=O)N1CCC(c2ccc3c(c2)CN(c2cc(N4CCN(C)CC4)nc(N)n2)C(C)C3)CC1 (stereo not shown) [Example 149, 4-(4-Methylpiperazin-1-yl)-6-[3-methyl-7-(1-propionylpiperidin-4-yl)-3,4-dihydroisoquinolin-2 (1H)-yl]pyrimidin-2-amine]		0.0261
CC1Cc2ccc(-c3cnn(C)c3)cc2CN1c1cc(N2CCNCC2)nc(N)n1 (stereo not shown) [Example 121, 4-[3-Methyl-7-(1-methyl-1H-pyrazol-4-yl)-3,4-dihydroisoquinolin-2 (1H)-yl]-6-piperazin-1-ylpyrimidin-2-amine]		0.024
CC1Cc2ccc(-c3ccnc(C(=O)N4CC[C@H](O)C4)c3)cc2CN1c1cc(N2CCN(C)CC2)nc(N)n1 (single isomer, unassigned) [Example 65A]		0.107
CC1Cc2ccc(-c3cnn(CCN4CCOCC4)c3)cc2CN1c1cc(N2CCN(C)CC2)nc(N)n1 (single isomer, unassigned) [Example 104, 4-[3-Methyl-7-[1-(2-morpholin-4-ylethyl)-1H-pyrazol-4-yl]-3,4-dihydroisoquinolin-2(1H)-yl]-6-(4-methylpiperazin-1-yl)pyrimidin-2-amine]		0.045
CN1CCN(c2cc(N3CCc4ccc(C(=O)N(C)Cc5cccc(F)c5)cc4C3)nc(N)n2)CC1 [Example 25, 2-[2-Amino-6-(4-methylpiperazin-1-yl)pyrimidin-4-yl]-N-(3-fluorobenzyl)-N-methyl-1,2,3,4-tetrahydroisoquinoline-7-carboxamide]		0.26
CN1CCN(c2cc(N3CCc4ccc(N5CCC(c6ccc(C(N)=O)cc6)CC5)cc4C3)nc(N)n2)CC1 [Example 40, 4-(1-{2-[2-Amino-6-(4-methylpiperazin-1-yl)pyrimidin-4-yl]-1,2,3,4-tetrahydroisoquinolin-7-yl}piperidin-4-yl)benzamide]		0.039
CC1Cc2ccc(C3CCN(C(=O)N(C)C)CC3)cc2CN1c1cc(N2CCN(C)CC2)nc(N)n1 (stereo not shown) [Example 141, 4-{2-[2-Amino-6-(4-methylpiperazin-1-yl)pyrimidin-4-yl]-3-methyl-1,2,3,4-tetrahydroisoquinolin-7-yl}-N,N-dimethylpiperidine-1-carboxamide]		0.04
CN1CCN(c2cc(N3CCc4ccc(C(=O)N5CCC(c6ccccc6)C5)cc4C3)nc(N)n2)CC1 (stereo not shown) [Example 24, 4-(4-Methylpiperazin-1-yl)-6-[7-[(3-phenylpyrrolidin-1-yl)carbonyl]-3,4-dihydroisoquinolin-2(1H)-yl]pyrimidin-2-amine]		0.966
CNC(=O)c1ccc(-c2ccc3c(c2)CN(c2cc(N4CCN(C)CC4)nc(N)n2)C(CO)C3)cn1 (single isomer, unassigned) [Example 81A, 5-[2-[2-amino-6-(4-methylpiperazin-1-yl)pyrimidin-4-yl]-3-(hydroxymethyl)-1,2,3,4-tetrahydroisoquinolin-7-yl]-N-methylpyridine-2-carboxamide]		0.075
CCOC(=O)N1CCN(c2ccc3c(c2)CN(c2cc(N4CCN(C)CC4)nc(N)n2)CC3)CC1 [Example 30, Ethyl 4-{2-[2-amino-6-(4-methylpiperazin-1-yl)pyrimidin-4-yl]-1,2,3,4-tetrahydroisoquinolin-7-yl}piperazine-1-carboxylate]		0.282
CNC(=O)c1ccc(-c2ccc3c(c2)CN(c2cc(N4CCN(C)CC4)nc(N)n2)C(C)C3)cn1 (stereo not shown) [Example 49, 5-{2-[2-Amino-6-(4-methylpiperazin-1-yl)pyrimidin-4-yl]-3-methyl-1,2,3,4-tetrahydroisoquinolin-7-yl}-N-methylpyridine-2-carboxamide]		0.042
CC1Cc2ccc(-c3ccnc(C(=O)N4CC(C#N)C4)c3)cc2CN1c1cc(N2CCN(C)CC2)nc(N)n1 (single isomer, unassigned) [Example 63B, 1-[(4-{2-[2-amino-6-(4-methylpiperazin-1-yl)pyrimidin-4-yl]-3-methyl-1,2,3,4-tetrahydroisoquinolin-7-yl}pyridin-2-yl)carbonyl]azetidine-3-carbonitrile]		0.047
CN1CCN(c2cc(N3Cc4ccccc4CC3=O)nc(N)n2)CC1 [Example 23, 2-[2-Amino-6-(4-methylpiperazin-1-yl)pyrimidin-4-yl]-1,4-dihydroisoquinolin-3(2H)-one]		0.158
CN1CCN(c2cc(N3Cc4ccccc4C[C@H]3CO)nc(N)n2)CC1 [Example 15, {(3S)-2-[2-Amino-6-(4-methylpiperazin-1-yl)pyrimidin-4-yl]-1,2,3,4-tetrahydroisoquinolin-3-yl}methanol]		0.145
